Test system: HEK293 cells
Assay: Preliminary screening as DNA vectors, GFP transfection of HEK293 cells
Format: cell-based
Details: amino lipid/DOPE liposome with 75 ng plasmid DNA (psin-EGFP-IRES-Puro); number of GFP-expressing cells divided by total nuclei (Hoechst)
Procedure, shortened: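 HEK293 cells in DMEM/10% FBS transfected with 75 ng EGFP plasmid per well complexed with amino lipid/DOPE liposomes in pH 5.6 sodium acetate. Hoechst nuclear stain added 20-24 h post-transfection, then cells cultured another 20-24 h. Confocal imaging gives GFP-positive cells as % of total nuclei.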

SMILES | Absolute DNA transfection efficiency in HEK293 cells [%]
CCCCCCCCCCCCCCCSc1nc(NCCCCCCCCCCCC)nc(NCCN2CCCCC2)n1 [S15N12 D4] | 0.1
CCCCCCCCSc1nc(NCCN(CC)CC)nc(SCCCCCCC)n1 [S7S8 D7] | 5.8
CCCCCCCCCCCCNc1nc(NCCCN2CCN(C)CC2)nc(SCCCCCCCCC)n1 [S9N12 D9] | 28.8
CCCCCCCCCCCCCCSc1nc(NCCCN2CCN(C)CC2)nc(N(CCCCCCCCCCCC)CCCCCCCCCCCC)n1 [S14^2N12 D9] | 0.0
CCCCCCCCCCCCSc1nc(NCCCN(C)C)nc(SCCCCCCCC)n1 [S8S12 D6] | 12.6
CCCCCCCCSc1nc(NCCN2CCCCC2)nc(SCCCCCCC)n1 [S7S8 D4] | 7.0
CCCCCCCCCCCCCCCSc1nc(NCCCCCCCCCCCC)nc(NCCCN(C)C)n1 [S15N12 D6] | 6.4
CCCCCCCCCCCCN(CCCCCCCCCCCC)c1nc(NCCCN2CCN(C)CC2)nc(SCCCCCCCCCC)n1 [S10^2N12 D9] | 0.5
CCCCCCNc1nc(NCCN(CC)CC)nc(SCCCCCC)n1 [S6N6 D7] | 0.0
CCCCCCCCCSc1nc(NCCCCCCCC)nc(NCCCN2CCOCC2)n1 [S9N8 D8] | 12.2
CCCCCCCCCCCCN(CCCCCCCCCCCC)c1nc(NCC2CCN(C)CC2)nc(SCCCCCCCC)n1 [S8^2N12 D10] | 0.8
CCCCCCCCCCCCCCCCCCSc1nc(NCCCCCCCCCCCCC)nc(NCCN(CC)CC)n1 [S18N13 D7] | 0.0
CCCCCCCCCCCCCCCCNc1nc(NCCN2CCN(C)CC2)nc(SCCCCCCCCCCCCCCC)n1 [S15N16 D5] | 0.2
CCCCCCCCCCCCCCCCSc1nc(NCCCCCCC)nc(NCCN2CCCC2)n1 [S16N7 D3] | 8.9
CCCCCCCCNc1nc(NCC2CCN(C)CC2)nc(SCCCCCC)n1 [S6N8 D10] | 0.4
CCCCCCCCCCCCCCCNc1nc(NCCN2CCOCC2)nc(SCCCCCCCCCCCCCCC)n1 [S15N15 D2] | 0.0
CCCCCCCCCCCCCCCSc1nc(NCCCCCCCC)nc(NCCN2CCOCC2)n1 [S15N8 D2] | 19.3
CCCCCCCCCCCCN(CCCCCCCCCCCC)c1nc(NCCCN2CCOCC2)nc(SCCCCCCCCC)n1 [S9^2N12 D8] | 0.0

SMILES | Absolute DNA transfection efficiency in HEK293 cells [%]
CCCCCCCCCCCCCCCCNc1nc(NCCCN2CCN(C)CC2)nc(SCCCCCC)n1 [S6N16 D9] | 20.6
CCCCCCCCCCCCCCCCNc1nc(NCCN(C)C)nc(SCCCCCC)n1 [S6N16 D1] | 6.6
CCCCCCCCCCCCCCCCSc1nc(NCCCCCCC)nc(NCC2CCN(C)CC2)n1 [S16N7 D10] | 3.4
CCCCCCCCCCCCCCCCNc1nc(NCCN2CCOCC2)nc(SCCCCCCCCCCCCCC)n1 [S14N16 D2] | 0.0
CCCCCCCCCSc1nc(NCCN2CCCCC2)nc(SCCCCCC)n1 [S6S9 D4] | 1.8
CCCCCCCSc1nc(NCCCN2CCN(C)CC2)nc(SCCCCCCC)n1 [S7S7 D9] | 7.9
CCCCCCCCCCCCCCCCSc1nc(NCCCCCCCC)nc(NCCCN2CCN(C)CC2)n1 [S16N8 D9] | 10.9
CCCCCCCCCCCCCCCCCCNc1nc(NCCN(C)C)nc(SCCCCCCCCCCCCCCCC)n1 [S16N18 D1] | 0.3
CCCCCCCCCCCCCCCCCCNc1nc(NCCN(C)C)nc(SCCCCCCCCCCC)n1 [S11N18 D1] | 13.8
CCCCCCCCCCCCCCCSc1nc(NCCN2CCCC2)nc(SCCCCCCC)n1 [S7S15 D3] | 4.6
CCCCCCCCCCCCN(CCCCCCCCCCCC)c1nc(NCCN2CCCC2)nc(SCCCCCC)n1 [S6^2N12 D3] | 0.1
CCCCCCCCCCCNc1nc(NCCN(CC)CC)nc(SCCCCCCCCCCC)n1 [S11N11 D7] | 6.8
CCCCCCCCCCCCCCCCCCSc1nc(NCCCCCCC)nc(NCCCN2CCN(C)CC2)n1 [S18N7 D9] | 9.3
CCCCCCCCCCCNc1nc(NCCCN(C)C)nc(SCCCCCC)n1 [S6N11 D6] | 1.9
CCCCCCCCCCCCCCSc1nc(NCCN2CCCC2)nc(N(CCCCCCCCCCCC)CCCCCCCCCCCC)n1 [S14^2N12 D3] | 0.2
CCCCCCCCCCCSc1nc(NCCCCCCCCC)nc(NCCN2CCN(C)CC2)n1 [S11N9 D5] | 20.5
CCCCCCCCCCCNc1nc(NCCN2CCCC2)nc(SCCCCCCCCCCC)n1 [S11N11 D3] | 23.4
CCCCCCCCCCCCCNc1nc(NCCN(CC)CC)nc(SCCCCCCCCCCC)n1 [S11N13 D7] | 2.8
